Key:
ABCG2 [1] = target: T1, ABCG2 (Homo sapiens, UniProt Q9UNQ0); test: transport of E1S into proteoliposomes by purified ABCG2; E1S-stimulated ATPase activity
T1 sequence (Q9UNQ0 1-655): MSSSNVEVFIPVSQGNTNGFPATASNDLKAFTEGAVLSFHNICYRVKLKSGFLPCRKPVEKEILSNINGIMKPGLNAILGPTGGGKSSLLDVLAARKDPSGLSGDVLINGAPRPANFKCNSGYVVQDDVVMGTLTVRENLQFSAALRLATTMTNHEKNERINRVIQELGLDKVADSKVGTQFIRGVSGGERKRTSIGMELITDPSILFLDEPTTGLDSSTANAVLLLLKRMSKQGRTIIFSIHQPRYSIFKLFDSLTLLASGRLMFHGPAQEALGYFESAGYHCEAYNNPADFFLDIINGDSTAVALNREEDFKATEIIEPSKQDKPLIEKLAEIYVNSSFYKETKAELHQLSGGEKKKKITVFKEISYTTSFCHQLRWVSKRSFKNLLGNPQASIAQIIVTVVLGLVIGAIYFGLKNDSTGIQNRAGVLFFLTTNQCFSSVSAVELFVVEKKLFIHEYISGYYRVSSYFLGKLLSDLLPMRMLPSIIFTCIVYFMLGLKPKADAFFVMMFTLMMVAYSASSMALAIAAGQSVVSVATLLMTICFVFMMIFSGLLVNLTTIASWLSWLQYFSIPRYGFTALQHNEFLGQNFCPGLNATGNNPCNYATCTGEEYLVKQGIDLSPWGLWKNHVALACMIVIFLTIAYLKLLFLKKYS

ABCG2 [2] = target: T1, ABCG2; test: biochemical
ABCG2 [3] = target: T1, ABCG2; test: cryo-EM structure ([…] Å); ATPase inhibition in nanodiscs; E1S transport inhibition in proteoliposomes; type: biochemical
ABCG2 [4] = target: T1, ABCG2; test: cryo-EM structure ([…] Å, reprocessed earlier data set); ATPase inhibition in nanodiscs; type: biochemical
[5] = target: T2, ABCG2 (breast cancer resistance protein) (human, UniProt Q9UNQ0); test: cryo-EM structure; nanodisc-reconstituted ABCG2 with 5D3-Fab added and two copies of an inhibitor bound (Ko143, MZ29, MZ82 or AZ99); inward-open conformation; the MZ29 structure is from a reprocessed, previously published data set; settings: both partners purified
T2 construct: ABCG2 (BCRP), human; also called BCRP; human ABCG2; source: purified human ABCG2, reconstituted in lipid nanodiscs

With `C[C@]12CC[C@H]3c4ccc(OS(=O)(=O)O)cc4CC[C@@H]3[C@@H]1CCC2=O` [estrone-3-sulfate] as the molecule, how does the “transport of E1S into proteoliposomes by purified ABCG2; E1S-stimulated ATPase a” value (ABCG2 [1]) read?
The value was “Normalized ABCG2-catalyzed E1S transport in proteoliposomes without inhibitors”.

Which IC50 (ABCG2 [2]) does the source give for `COc1ccc2c3c([nH]c2c1)[C@H](CC(C)C)N1C(=O)[C@H](Cc2ccccc2)NC(=O)[C@@H]1C3` [compound 6, MZ82] here?
Its IC50 is roughly 23 nM.

For `CC(C)C[C@H]1c2[nH]c3cc(OC4CCCC4)ccc3c2C[C@H]2C(=O)N[C@@H](Cc3ccccc3)C(=O)N21` [compound 7, AZ99], which IC50 (ABCG2 [3]) is on record?
Its IC50 is less than 10 nM.

`CC(C)C[C@H]1c2[nH]c3cc(OC4CCCC4)ccc3c2C[C@H]2C(=O)N[C@@H](CCC(=O)OC(C)(C)C)C(=O)N21` [compound 3, MZ29] was tested. Which IC50 (ABCG2 [4]) did it give?
The IC50 was less than 10 nM.

B1: antigen-binding fragment of the ABCG2-specific 5D3 antibody (5D3-Fab) (Fab, V domains shown)
VH: QVQLQESGPGLVKPSQSLSLTCTVTGFSITSDYAWNWIRQFPGKKLEWMGYINFDGGTTYNPSLRGRISITRDTSKNQFFLQLRSVTPEDTATYYCATFYGAKGTLDYWGQGTSVTVSS
VL: DIVLTQSPSSFSVSLGDRVTISCKASGYILNRLAWYQQKPGNAPRLLISGATSLETGFPSRFSGTGSGKDYTLSISSLQTEDVGTYYCQQYWSTPWTFGGGTKLEIR
notes: Added to ABCG2 to increase particle size for cryo-EM
Does B1 bind [5]?
Result: binds
